Reference: US11560400B2, “Salts of diphosphate phosphoramidate of nucleosides as anticancer compounds” (NuCana plc, priority 2017, dated 2023)
Values joined by “and” are separate entries in the source; they are usually repeats but may differ in a detail not shown here. Equal values may be shown once. “Also recorded” adds a separate entry of the source. Where a name gives a salt, the structure may show the parent alone. Read-outs that look alike come from different tables or passages of the source.

Legend:
MCF-7 = test: CellTiterGlo cell viability assay, MCF-7; format: cell-based; conditions: MCF-7, 72 h; for EC50: read-out: Ab EC50; for inhibition at 198 µM: read-out: Top Inhibit
Method in brief: (§1)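 72 h CTG viability; 9-pt, 3.16-fold titration, 198 μM top to 19.8 nM final; duplicates; 0.5% DMSO final; standard growth conditions. Read-out: absolute EC50 and % inhibition at highest concentration.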

RL = test: CellTiterGlo cell viability assay, RL; format: cell-based; conditions: Homo sapiens, 72 h; for EC50: read-out: Ab EC50; for inhibition at 198 µM: percentage inhibition at the highest concentration tested, read-out: Top Inh
Method in brief: as §1

in vitro = conditions: human, hepatocytes, pH 7.3
K562 = test: CellTiterGlo cell viability assay, K562; format: cell-based; conditions: Homo sapiens, K562, 72 h; for inhibition at 198 µM: percentage inhibition at the highest concentration tested, read-out: Top Inh; for EC50: read-out: Ab EC50
Method in brief: as §1

OVCAR 3 = test: CellTiterGlo cell viability assay, OVCAR 3; format: cell-based; conditions: Homo sapiens; for inhibition at 198 µM: OVCAR-3, 72 h, percentage inhibition at the highest concentration tested, read-out: Top Inhibit; for EC50: OVCAR 3, 72 h, read-out: Ab EC50
Method in brief: as §1

RPMI-8226 = test: CellTiterGlo cell viability assay, RPMI-8226; format: cell-based, Human; conditions: Homo sapiens, RPMI-8226, 72 h; for EC50: Table 3 classes, read-out: Ab EC50; for inhibition at 198 µM: percentage inhibition at the highest concentration tested, read-out: Top Inh
Method in brief: as §1

HL-60 = test: CellTiterGlo cell viability assay, HL-60; format: cell-based; conditions: Homo sapiens, HL-60, 72 h; for EC50: read-out: Ab EC50; for inhibition at 198 µM: percentage inhibition at the highest concentration tested, read-out: Top Inh
Method in brief: as §1

MOLT-4 = test: CellTiterGlo cell viability assay, MOLT-4; format: cell-based; conditions: Homo sapiens, MOLT-4, 72 h; for inhibition at 198 µM: percentage inhibition at the highest concentration tested, read-out: Top Inh; for EC50: read-out: Ab EC50
Method in brief: as §1

CCRF-CEM = test: CellTiterGlo cell viability assay, CCRF-CEM; format: cell-based; conditions: Homo sapiens, 72 h; for EC50: read-out: Ab EC50; for inhibition at 198 µM: percentage inhibition at the highest concentration tested, read-out: Top Inh
Method in brief: as §1

HT29 = test: CellTiterGlo cell viability assay, HT29; format: cell-based; conditions: HT29, 72 h; for EC50: read-out: Ab EC50; for inhibition at 198 µM: read-out: Top Inhibit
Method in brief: as §1

KG1a cells = test: In vitro cytotoxicity, Annexin V/propidium iodide assay in KG1a cells; format: cell-based; conditions: for change of potency (mean LD50) under hypoxic versus normoxic conditions: 5% oxygen; for Hypoxia Mean LD50 / Mean LD50 (Normoxia Mean LD50): 48 h; for Hypoxia Mean LD50: hypoxic (5% O2); for Mean LD50 (Normoxia Mean LD50): normoxic (20% oxygen); for mean LD50: normoxic; for Ratio Normoxia/Hypoxia: ratio of mean LD50 values
Protocol: The acute myeloid leukaemia (AML) KG1a cell line was maintained in RPMI medium (Invitrogen, Paisley, UK) supplemented with 100 units/mL penicillin, 100 μg/mL streptomycin and 20% foetal calf serum. Cells were subsequently aliquoted (10^5 cells/100 μL) into 96-well plates and were incubated at 37° C. in a humidified normoxic (20% oxygen) or hypoxic (1% or 5% oxygen) atmosphere for 48 h in the presence of clofarabine, or clofarabine diphosphate phosphoramidates of the invention (1×10^−10M-1×10^−6M). In addition, control cultures were carried out to which no drug was added. Cells were subsequently harvested by centrifugation and were analysed by flow cytometry using the Annexin V assay.
Cultured cells were harvested by centrifugation and then resuspended in 195 μL of calcium-rich buffer. Subsequently, 5 μL of Annexin V (Caltag Medsystems, Botolph Claydon, UK) was added to the cell suspension and cells were incubated in the dark for 10 mins prior to washing. Cells were finally resuspended in 190 μL of calcium-rich buffer together with 10 μL of propidium iodide. Apoptosis was assessed by dual-colour immunofluorescent flow cytometry as described previously. Subsequently LD50 values (the dose required to kill 50% of the cells in a culture) were calculated for each nucleoside analogue and diphosphate phosphoramidate.
The data obtained in these experiments were evaluated using one-way ANOVA. All data was confirmed as Gaussian or a Gaussian approximation using the omnibus K2 test. LD50 values were calculated from the non-linear regression and line of best-fit analysis of the sigmoidal dose-response curves. All statistical analyses were performed using Graphpad Prism 6.0 software (Graphpad Software Inc., San Diego, Calif.).
The in vitro drug sensitivity of KG1a cells was assessed using the Annexin V/propidium iodide assay.

Human hepatocytes = conditions: pooled cryopreserved hepatocytes, 1 μM, 0 and 120 min, 37° C.
Mia-Pa-Ca-2 = test: CellTiterGlo cell viability assay, Mia-Pa-Ca-2; format: cell-based; conditions: Mia-Pa-Ca-2, 72 h; for EC50: absolute EC50, read-out: Ab EC50
Protocol: A subset of compounds of the invention were assayed for their cytotoxic activity in an array of different solid tumours and haematological malignancies using the following assay.
In vitro viability assay were performed to assess the effects of compounds on cell viability in selected cell lines over 72 h using the CellTiterGlo (CTG, Promega-G7573) assay. The tests were performed in duplicates with treatment of compounds at 9 points, 3.16 folds titration in 96 well plates over ˜72 h. The compound starting concentrations were 198 μM. Cell viability assay using CellTiterGlo in 96-well plate were performed. Compound treatment 72 h, standard growth conditions, duplicates. Compounds were dissolved to 40 mM with thawed […]. Compounds were serially diluted at 3.16 fold in thawed DMSO, and warmed to 37° C. before being dissolved in media (2 μL+200 μL). After compounds were dissolved in media, media containing compounds were warmed to 37° C. in incubator and then compounds in media were added to cell plates (50 μL+50 μL) in duplicates. The compounds' final concentrations were from 198 μM to 19.8 nM. All compound solubilities were checked and recorded again, then the plates were transferred to CO2 tissue culture incubator immediately and incubated for 3 days. DMSO final concentration is 0.5%. The parent nucleoside in each case was tested as a comparator, as was an exemplary ProTide. The drugs of the ProTide class that were tested were as follows:
The following cell lines were tested and are referred to in the Table 1 below:
In Tables 2, 3 and 4, ‘Ab EC50’ refers to the absolute EC50 and ‘Top inhibit’ refers to the percentage inhibition achieved at the highest concentration tested.

HepG2 = test: CellTiterGlo cell viability assay, HepG2; format: cell-based; conditions: Homo sapiens, HepG2, 72 h
Method in brief: as §1

[1] = system: Lin−/CD34+/CD38−/CD123+ LSCs of KG1a cells; test: Leukaemic stem cell (LSC) targeting in KG1a cells; format: cell-based; conditions: in words
Protocol: KG1a cells were cultured for 48 h in the presence of a wide range of concentrations of each nucleoside analogue and their respective diphosphate phosphramidate. Cells were then harvested and labelled with a cocktail of anti-lineage antibodies (PE-cy7), anti-CD34 (FITC), anti-CD38 (PE) and anti-CD123 (PERCP cy5). The sub-population expressing a leukaemic stem cell (LSC) phenotype were subsequently identified and were expressed as a percentage of all viable cells left in the culture. The percentages of stem cells remaining were then plotted on a dose-response graph and the effects of the diphosphate phosphoramidate were compared with the parental nucleosides.

[2] = Homo sapiens, MCF7, 72 h, Table 3 classes
[3] = Homo sapiens, MCF7, 72 h, percentage inhibition at the highest concentration tested
[4] = Homo sapiens, HT-29, 72 h, Table 3 classes
[5] = Homo sapiens, HT-29, 72 h, percentage inhibition at the highest concentration tested
[6] = percentage inhibition at the highest concentration tested

Compound | EC50 (MCF-7; [2]) [nM] | inhibition at 198 µM (MCF-7; [3]) [%] | EC50 (RL; Table 3 classes) [nM] | inhibition at 198 µM (RL) [%] | half-life (in vitro) [min] | inhibition at 198 µM (K562) [%] | EC50 (K562; Table 3 classes) [nM] | inhibition at 198 µM (OVCAR 3) [%] | EC50 (OVCAR 3; Table 3 classes) [nM] | EC50 (RPMI-8226) [nM] | inhibition at 198 µM (RPMI-8226) [%] | EC50 (HL-60; Table 3 classes) [nM] | inhibition at 198 µM (HL-60) [%] | inhibition at 198 µM (MOLT-4) [%] | EC50 (MOLT-4; Table 3 classes) [nM] | EC50 (CCRF-CEM; Table 3 classes) [nM] | inhibition at 198 µM (CCRF-CEM) [%] | EC50 (HT29; [4]) [nM] | inhibition at 198 µM (HT29; [5]) [%] | change of potency (mean LD50) under hypoxic versus normoxic conditions (KG1a cells; in words) | further results
CCOC(=O)[C@H](C)NP(=O)(Oc1ccccc1)OP(=O)(O)OC[C@H]1O[C@@H](n2cnc3c(N)nc(Cl)nc32)[C@H](F)C1O (stereo partly drawn) [Example 2, 2-Chloro-9-(2′-Deoxy-2′-fluoro-β-D-arabinofuranosyl)adenine-5′-O-[phenyl(ethoxy-L-alaninyl)] Diphosphate Triethylammonium Salt] | 200 to 2000 | 54 | 200 to 2000 | 65 | 20 to 100 | 29 | > 10000 | 48 | > 10000 | 5000 to 10000 | 92 | < 200 | 98 | 98 | < 200 | < 200 | 98.7 | 200 to 2000 | 62 | reduction in potency was not observed | Hypoxia Mean LD50 (KG1a cells): 95.0 nM; Mean LD50 (Normoxia Mean LD50) (KG1a cells): 71.0 nM; mean LD50 (KG1a cells): 43.8 nM and 71 nM; Ratio Normoxia/Hypoxia (KG1a cells): 74.7
Nc1ncnc2c1nc(Cl)n2[C@@H]1O[C@H](CO)[C@@H](O)[C@H]1O [8-Cl-Adenosine, reference compound] |  |  |  |  |  |  |  |  |  |  |  |  |  |  |  |  |  |  |  |  | Human hepatocytes Mean half-life (Human hepatocytes): >120 min; EC50 (MCF-7; absolute EC50, numeric values): 1830 nM; Top Inhibit (MCF-7; [6]): 85.7%; EC50 (Mia-Pa-Ca-2): 420 nM; Top Inhibit (Mia-Pa-Ca-2; [6]): 85%; EC50 (HT29; absolute EC50, numeric values): 1960 nM; Top Inhibit (HT29; [6]): 73%
C[C@H](NP(=O)(Oc1ccccc1)OP(=O)(O)OC[C@H]1O[C@@H](n2ccc(N)nc2=O)C(F)(F)C1O)C(=O)OCc1ccccc1 (stereo partly drawn) [Example 8, 2′-Deoxy-2′,2′-difluoro-D-cytidine-5′-O-[phenyl(benzoxy-L-alaninyl)] Diphosphate Triethylammonium Salt] |  | 52 |  | 66.5 | 27 | 29 |  | 48.5 |  |  |  |  | 98 | 84 |  |  | 99.9 |  | 62 |  | EC50 (MCF-7; Homo sapiens, MCF7, 72 h, absolute EC50, numeric values): 70 nM; EC50 (RL; absolute EC50, numeric values): 200 nM; EC50 (K562; absolute EC50, numeric values): > 198000 nM; EC50 (OVCAR 3; absolute EC50, numeric values): > 198000 nM; EC50 (Mia-Pa-Ca-2; Homo sapiens, MIA PaCa-2): 70 nM; inhibition at 198 µM (Mia-Pa-Ca-2; Homo sapiens, MIA PaCa-2, percentage inhibition at the highest concentration tested, read-out: Top Inhibit): 79%; EC50 (HL-60; absolute EC50, numeric values): 80 nM; EC50 (MOLT-4; absolute EC50, numeric values): 9 nM; EC50 (CCRF-CEM; absolute EC50, numeric values): 40 nM; EC50 (HT29; Homo sapiens, HT-29, 72 h, absolute EC50, numeric values): 480 nM; EC50 (HepG2; absolute EC50, numeric values, read-out: Ab EC50): 83100 nM; inhibition at 198 µM (HepG2; percentage inhibition at the highest concentration tested, read-out: Top Inhibit): 52%
C[C@H](NP(=O)(Oc1ccccc1)OP(=O)(O)OC[C@H]1O[C@@H](n2cnc3c(N)nc(Cl)nc32)[C@H](F)C1O)C(=O)OCc1ccccc1 (stereo partly drawn) [Example 1, 2-Chloro-9-(2′-Deoxy-2′-fluoro-β-D-arabinofuranosyl)adenine-5′-O-[phenyl(benzoxy-L-alaninyl)] Diphosphate Triethylammonium Salt] | 200 to 2000 | 59 | 200 to 2000 | 70 | 20 to 100 | 24 | > 10000 |  | > 10000 | 5000 to 10000 | 91 | < 200 | 97 | 82.7 | < 200 | < 200 | 98.7 | 200 to 2000 | 66 | no significant difference in mean LD50 values; also recorded: reduction in potency was not observed | Hypoxia Mean LD50 (KG1a cells): 16.3 nM; Mean LD50 (Normoxia Mean LD50) (KG1a cells): 13.7 nM; potency in KG1a cells (dose-response curves) (KG1a cells; in words): highest potency; also recorded: slightly more potent; mean LD50 (KG1a cells): 13.7 nM; Ratio Normoxia/Hypoxia (KG1a cells): 84.0; selectivity against LSCs [1]: trend towards increased selectivity
